Converted amounts (≈) assume the structure as drawn.

In this assay the test system is Bacillus anthracis. In words: Antimicrobial activity against Bacillus anthracis assessed as growth inhibition measured as turbidity. In kind it is functional.
Regarding `CCCC1c2ccccc2C=NN1C(=O)/C=C/c1cc(C(=O)c2cnc(N)nc2N)cc(OC)c1OC` (racemic), the minimum inhibitory concentration (MIC) is more than 128 µg/mL.

On to `COc1cc(C(=O)c2cnc(N)nc2N)cc(/C=C/C(=O)N2N=Cc3ccccc3C2C=C(C)C)c1OC` (racemic), for which the MIC is more than 128 µg/mL.

Regarding `CCCC1c2ccccc2C=NN1C(=O)/C=C/c1cc(Cc2cnc(N)nc2N)cc(OCC)c1OCC` (racemic), the MIC is 4 µg/mL (≈ 7.77 µM).

As to `CCOc1cc(Cc2cnc(N)nc2N)cc(/C=C/C(=O)N2N=Cc3ccccc3C2C=C(C)C)c1OCC` (racemic), the minimal inhibitory concentration (MIC) came to 1 µg/mL (≈ 1.9 µM).

On to `CCCC1c2ccccc2C=NN1C(=O)/C=C/c1cc(Cc2cnc(N)nc2N)cc(OC)c1OCC` (racemic), for which the MIC came out at 2 µg/mL (≈ 4 µM).

Turning to `CCOc1c(/C=C/C(=O)N2N=Cc3ccccc3C2C=C(C)C)cc(Cc2cnc(N)nc2N)cc1OC` (racemic), the MIC was 0.5 µg/mL (≈ 0.975 µM).

With `CCCC1c2ccccc2C=NN1C(=O)/C=C/c1cc(Cc2cnc(N)nc2N)cc(OC)c1OCc1ccccc1` (racemic), the MIC came out at 4 µg/mL (≈ 7.11 µM).

As for `CCCC1c2ccccc2C=NN1C(=O)/C=C/c1cc(Cc2cnc(N)nc2N)cc2c1OCO2` (racemic), the MIC came out at 32 µg/mL (≈ 68 µM).

Take `CCCOc1cc(Cc2cnc(N)nc2N)cc(/C=C/C(=O)N2N=Cc3ccccc3C2CCC)c1OC` (racemic): the minimum inhibitory concentration (MIC) was determined as 4 µg/mL (≈ 7.77 µM).

Regarding `CCCC1c2ccccc2C=NN1C(=O)/C=C/c1cc(Cc2cnc(N)nc2N)cc(OC(=O)c2ccccc2)c1OC` (racemic), the MIC amounted to 4 µg/mL (≈ 6.94 µM).

For `CCCC1c2ccccc2C=NN1C(=O)/C=C/c1cc(Cc2cnc(N)nc2N)cc(OC(=O)c2ccc(OC)cc2)c1OC` (racemic), the MIC is 8 µg/mL (≈ 13.2 µM).

Turning to `CCCC1c2ccccc2C=NN1C(=O)/C=C/c1cc(Cc2cnc(N)nc2N)cc(OC(=O)c2ccc([N+](=O)[O-])cc2)c1OC` (racemic), the MIC was found to be 8 µg/mL (≈ 12.9 µM).

Regarding `CCCC1c2ccccc2C=NN1C(=O)/C=C/c1cc(Cc2cnc(N)nc2N)cc(OC(=O)c2ccc(OC(F)(F)F)cc2)c1OC` (racemic), the MIC worked out at 8 µg/mL (≈ 12.1 µM).

`CCCC1c2ccccc2C=NN1C(=O)/C=C/c1cc(Cc2cnc(N)nc2N)cc(OCc2ccc(F)cc2)c1OC` (racemic): the MIC amounted to 8 µg/mL (≈ 13.8 µM).

`CCCC1c2ccccc2C=NN1C(=O)/C=C/c1cc(Cc2cnc(N)nc2N)cc(OCc2ccc(C(F)(F)F)cc2)c1OC` (racemic): the MIC was 8 µg/mL (≈ 12.7 µM).

With `COc1cc(Cc2cnc(N)nc2N)cc(OC)c1OC` [TRIMETHOPRIM], the MIC is more than 2050 µg/mL.
